Measurements reported in ChEMBL document CHEMBL4732126, “Design, synthesis, and biodistribution studies of new analogues of marine alkaloids: Potent in vitro and in vivo fungicidal agents against Candida spp” (Eur J Med Chem, 2021).
The source made the active and inactive calls.

Tests used:
Candida albicans [1] = assay: Antifungal activity against Candida albicans ATCC 10231 assessed as reduction in fungal growth incubated for 48 hrs by broth microdilution method; format: functional
Candida albicans [2] = assay: Antifungal activity against Candida albicans ATCC 18804 assessed as reduction in fungal growth incubated for 48 hrs by broth microdilution method; format: functional
Nakaseomyces glabratus [3] = assay: Antifungal activity against Candida glabrata ATCC 2001 assessed as reduction in fungal growth incubated for 48 hrs by broth microdilution method; format: functional
Pichia kudriavzevii [4] = assay: Antifungal activity against Candida krusei ATCC 34135 assessed as reduction in fungal growth incubated for 48 hrs by broth microdilution method; format: functional
Candida tropicalis [5] = assay: Antifungal activity against Candida tropicalis ATCC 28707 assessed as reduction in fungal growth incubated for 48 hrs by broth microdilution method; format: functional
Candida albicans [6] = assay: Antifungal activity against Candida albicans isolate 1 assessed as reduction in fungal growth incubated for 48 hrs by broth microdilution method; format: functional
Candida albicans [7] = assay: Antifungal activity against Candida albicans isolate 2 assessed as reduction in fungal growth incubated for 48 hrs by broth microdilution method; format: functional
Candida albicans [8] = assay: Antifungal activity against Candida albicans isolate 3 assessed as reduction in fungal growth incubated for 48 hrs by broth microdilution method; format: functional
Candida albicans [9] = assay: Antifungal activity against Candida albicans isolate 4 assessed as reduction in fungal growth incubated for 48 hrs by broth microdilution method; format: functional
Candida albicans [10] = assay: Antifungal activity against Candida albicans isolate 5 assessed as reduction in fungal growth incubated for 48 hrs by broth microdilution method; format: functional
Candida albicans [11] = assay: Antifungal activity against Candida albicans isolate 6 assessed as reduction in fungal growth incubated for 48 hrs by broth microdilution method; format: functional
Candida albicans [12] = assay: Antifungal activity against Candida albicans isolate 7 assessed as reduction in fungal growth incubated for 48 hrs by broth microdilution method; format: functional
Candida albicans [13] = assay: Antifungal activity against Candida albicans isolate 8 assessed as reduction in fungal growth incubated for 48 hrs by broth microdilution method; format: functional
Candida albicans [14] = assay: Antifungal activity against Candida albicans isolate 9 assessed as reduction in fungal growth incubated for 48 hrs by broth microdilution method; format: functional
Candida albicans [15] = assay: Antifungal activity against Candida albicans isolate 10 assessed as reduction in fungal growth incubated for 48 hrs by broth microdilution method; format: functional
Candida albicans [16] = assay: Antifungal activity against Candida albicans isolate 11 assessed as reduction in fungal growth incubated for 48 hrs by broth microdilution method; format: functional
Candida albicans [17] = assay: Antifungal activity against Candida albicans isolate 12 assessed as reduction in fungal growth incubated for 48 hrs by broth microdilution method; format: functional
Candida albicans [18] = assay: Antifungal activity against Candida albicans isolate 13 assessed as reduction in fungal growth incubated for 48 hrs by broth microdilution method; format: functional
Candida albicans [19] = assay: Fungicidal activity against Candida albicans ATCC 18804 assessed as fungal killing incubated for 48 hrs followed by plating on SD agar plate; format: functional; details: read-out: MFC99.9
Candida albicans [20] = assay: Fungicidal activity against Candida albicans ATCC 10231 assessed as fungal killing incubated for 48 hrs followed by plating on SD agar plate; format: functional; details: read-out: MFC99.9
Nakaseomyces glabratus [21] = assay: Fungicidal activity against Candida glabrata ATCC 2001 assessed as fungal killing incubated for 48 hrs followed by plating on SD agar plate; format: functional; details: read-out: MFC99.9
Pichia kudriavzevii [22] = assay: Fungicidal activity against Candida krusei ATCC 34135 assessed as fungal killing incubated for 48 hrs followed by plating on SD agar plate; format: functional; details: read-out: MFC99.9
Candida tropicalis [23] = assay: Fungicidal activity against Candida tropicalis ATCC 28707 assessed as fungal killing incubated for 48 hrs followed by plating on SD agar plate; format: functional; details: read-out: MFC99.9
Candida albicans [24] = assay: Fungicidal activity against Candida albicans isolate 2 assessed as fungal killing incubated for 48 hrs followed by plating on SD agar plate; format: functional; details: read-out: MFC99.9
Candida albicans [25] = assay: Fungicidal activity against Candida albicans isolate 4 assessed as fungal killing incubated for 48 hrs followed by plating on SD agar plate; format: functional; details: read-out: MFC99.9
Candida albicans [26] = assay: Fungicidal activity against Candida albicans isolate 6 assessed as fungal killing incubated for 48 hrs followed by plating on SD agar plate; format: functional; details: read-out: MFC99.9
Candida albicans [27] = assay: Fungicidal activity against Candida albicans isolate 7 assessed as fungal killing incubated for 48 hrs followed by plating on SD agar plate; format: functional; details: read-out: MFC99.9
Candida albicans [28] = assay: Fungicidal activity against Candida albicans isolate 8 assessed as fungal killing incubated for 48 hrs followed by plating on SD agar plate; format: functional; details: read-out: MFC99.9
Candida albicans [29] = assay: Fungicidal activity against Candida albicans isolate 9 assessed as fungal killing incubated for 48 hrs followed by plating on SD agar plate; format: functional; details: read-out: MFC99.9
Candida albicans [30] = assay: Fungicidal activity against Candida albicans isolate 10 assessed as fungal killing incubated for 48 hrs followed by plating on SD agar plate; format: functional; details: read-out: MFC99.9
Candida albicans [31] = assay: Fungicidal activity against Candida albicans isolate 11 assessed as fungal killing incubated for 48 hrs followed by plating on SD agar plate; format: functional; details: read-out: MFC99.9
Candida albicans [32] = assay: Fungicidal activity against Candida albicans isolate 12 assessed as fungal killing incubated for 48 hrs followed by plating on SD agar plate; format: functional; details: read-out: MFC99.9
Candida albicans [33] = assay: Fungicidal activity against Candida albicans isolate 13 assessed as fungal killing incubated for 48 hrs followed by plating on SD agar plate; format: functional; details: read-out: MFC99.9
Candida albicans [34] = assay: Fungicidal activity against Candida albicans ATCC 10231 assessed as reduction in fungal load at 125 ug/ml incubated for 48 hrs followed by inoculation on SD agar plate for 48 hrs by time-kill assay; format: functional, organism-based; details: dose 125.0 µg/ml, time 96.0 hrs
Candida albicans [35] = assay: Antifungal activity against Candida albicans ATCC 10231 assessed as inhibition of yeast to hypha morphological transition at 125 ug/ml measured upto 72 hrs by microscopic analysis; format: functional, organism-based; details: dose 125.0 µg/ml, time hrs <=72
Candida albicans [36] = assay: Fungicidal activity against Candida albicans isolate 1 assessed as fungal killing incubated for 48 hrs followed by plating on SD agar plate; format: functional; details: read-out: MFC99.9
Candida albicans [37] = assay: Fungicidal activity against Candida albicans isolate 3 assessed as fungal killing incubated for 48 hrs followed by plating on SD agar plate; format: functional; details: read-out: MFC99.9
Candida albicans [38] = assay: Fungicidal activity against Candida albicans isolate 5 assessed as fungal killing incubated for 48 hrs followed by plating on SD agar plate; format: functional; details: read-out: MFC99.9
Candida albicans [39] = assay: Fungicidal activity against Candida albicans ATCC 10231 assessed as reduction in fungal load at 7.8 ug/ml incubated for 36 hrs followed by inoculation on SD agar plate for 48 hrs by time-kill assay; format: functional, organism-based; details: dose 7.8 µg/ml, time 84.0 hrs
Candida albicans [40] = assay: Disruption of cell membrane in Candida albicans ATCC 10231 assessed as increase in intracellular leakage at MIC incubated for 24 hrs by UV spectrophotometric analysis; format: cell-based
Nakaseomyces glabratus [41] = assay: Disruption of cell membrane in Candida glabrata ATCC 2001 assessed as increase in intracellular leakage at MIC incubated for 24 hrs by UV spectrophotometric analysis; format: cell-based
Pichia kudriavzevii [42] = assay: Disruption of cell membrane in Candida krusei ATCC 34135 assessed as increase in intracellular leakage at MIC incubated for 24 hrs by UV spectrophotometric analysis; format: cell-based
Candida tropicalis [43] = assay: Disruption of cell membrane in Candida tropicalis ATCC 28707 assessed as increase in intracellular leakage at MIC incubated for 24 hrs by UV spectrophotometric analysis; format: cell-based
Candida albicans [44] = assay: Antifungal activity against Candida albicans ATCC 10231 assessed as reduction in fungal growth incubated for 48 hrs in presence of ergosterol by broth microdilution method; format: functional
Candida albicans [45] = assay: Antifungal activity against Candida albicans ATCC 10231 assessed as reduction in fungal growth incubated for 48 hrs in presence of sorbitol by broth microdilution method; format: functional
Nakaseomyces glabratus [46] = assay: Antifungal activity against Candida glabrata ATCC 2001 assessed as reduction in fungal growth incubated for 48 hrs in presence of ergosterol by broth microdilution method; format: functional
Nakaseomyces glabratus [47] = assay: Antifungal activity against Candida glabrata ATCC 2001 assessed as reduction in fungal growth incubated for 48 hrs in presence of sorbitol by broth microdilution method; format: functional
Pichia kudriavzevii [48] = assay: Antifungal activity against Candida krusei ATCC 34135 assessed as reduction in fungal growth incubated for 48 hrs in presence of ergosterol by broth microdilution method; format: functional
Pichia kudriavzevii [49] = assay: Antifungal activity against Candida krusei ATCC 34135 assessed as reduction in fungal growth incubated for 48 hrs in presence of sorbitol by broth microdilution method; format: functional
Candida tropicalis [50] = assay: Antifungal activity against Candida tropicalis ATCC 28707 assessed as reduction in fungal growth incubated for 48 hrs in presence of ergosterol by broth microdilution method; format: functional
Candida tropicalis [51] = assay: Antifungal activity against Candida tropicalis ATCC 28707 assessed as reduction in fungal growth incubated for 48 hrs in presence of sorbitol by broth microdilution method; format: functional
Candida albicans [52] = assay: Antifungal activity against Candida albicans ATCC 10231 assessed as inhibition of yeast to hypha morphological transition at 15.6 ug/ml measured upto 72 hrs by microscopic analysis; format: functional, organism-based; details: dose 15.6 µg/ml, time hrs <=72
Candida albicans [53] = assay: Antibiofilm activity against Candida albicans ATCC 10231 assessed as reduction in mature biofilm at 125 ug/ml incubated for 48 hrs by crystal violet staining based spectrophotometric analysis relative to control; format: functional
Candida albicans [54] = assay: Antibiofilm activity against Candida albicans ATCC 10231 assessed as reduction in biofilm formation at 0.24 to 7.81 ug/ml by crystal violet staining based spectrophotometric analysis; format: functional, organism-based; details: dose 0.24-7.81 µg/ml
Candida albicans [55] = assay: Fungicidal activity against Candida albicans ATCC 10231 assessed as reduction in fungal load at 31.25 ug/ml incubated for 12 hrs followed by inoculation on SD agar plate for 48 hrs by time-kill assay; format: functional, organism-based; details: dose 31.25 µg/ml, time 60.0 hrs

CC(=O)N1CCN(c2ccc(OCC3COC(Cn4ccnc4)(c4ccc(Cl)cc4Cl)O3)cc2)CC1 (stereo not drawn) [KETOCONAZOLE]
125 µg/mL: MIC (Nakaseomyces glabratus [3]) | MFC (Candida albicans [19]) | MFC (Candida albicans [20]) | MFC (Candida albicans [25]) | MFC (Candida albicans [31])
0.97 µg/mL: MIC (Candida albicans [11])
15.6 µg/mL: MIC (Candida albicans [17]) | MIC (Candida albicans [18])
inactive: Activity (Candida albicans [34])
500 µg/mL: MFC (Candida albicans [32])
> 500 µg/mL: MIC (Candida albicans [6]) | MIC (Candida albicans [8]) | MIC (Candida albicans [10]) | MFC (Nakaseomyces glabratus [21]) | MFC (Candida albicans [24])
31.2 µg/mL: MIC (Candida albicans [1]) | MIC (Candida albicans [2]) | MIC (Candida tropicalis [5]) | MIC (Candida albicans [9]) | MIC (Candida albicans [14]) | MIC (Candida albicans [16])
250 µg/mL: MFC (Candida albicans [29]) | MFC (Candida albicans [33])
active: Activity (Candida albicans [35])
1.95 µg/mL: MIC (Candida albicans [12])
62.3 µg/mL: MIC (Candida albicans [7])
62.5 µg/mL: MFC (Candida tropicalis [23]) | MFC (Candida albicans [30])
7.8 µg/mL: MIC (Pichia kudriavzevii [4]) | MIC (Candida albicans [15]) | MFC (Pichia kudriavzevii [22]) | MFC (Candida albicans [27]) | MFC (Candida albicans [28])
3.9 µg/mL: MIC (Candida albicans [13]) | MFC (Candida albicans [26])

CCCC[n+]1cccc(CCCOCCCCCCCCCCCCN=[N+]=[N-])c1.[I-]
3.9 µg/mL: MIC (Pichia kudriavzevii [4]) | MIC (Candida albicans [8]) | MIC (Candida albicans [10]) | MIC (Candida albicans [13]) | MFC (Pichia kudriavzevii [22]) | MFC (Candida albicans [37]) | MFC (Candida albicans [25]) | MFC (Candida albicans [38]) | MIC (Pichia kudriavzevii [48]) | MIC (Pichia kudriavzevii [49])
15.6 µg/mL: MIC (Candida albicans [11]) | MIC (Candida albicans [14]) | MIC (Candida albicans [15]) | MFC (Nakaseomyces glabratus [21]) | MFC (Candida tropicalis [23]) | MIC (Nakaseomyces glabratus [46])
50%: inhibition at 125 µg/mL (Candida albicans [53])
125 µg/mL: MFC (Candida albicans [19])
62.5 µg/mL: MFC (Candida albicans [36])
7.8 µg/mL: MIC (Candida albicans [1]) | MIC (Candida albicans [2]) | MIC (Nakaseomyces glabratus [3]) | MIC (Candida tropicalis [5]) | MIC (Candida albicans [6]) | MIC (Candida albicans [7]) | MIC (Candida albicans [12]) | MIC (Candida albicans [16]) | MIC (Candida albicans [17]) | MIC (Candida albicans [18]) | MFC (Candida albicans [24]) | MFC (Candida albicans [27]) | MFC (Candida albicans [28]) | MFC (Candida albicans [31]) | MFC (Candida albicans [32]) | MFC (Candida albicans [33]) | MIC (Candida albicans [44]) | MIC (Candida albicans [45]) | MIC (Nakaseomyces glabratus [47]) | MIC (Candida tropicalis [50]) | MIC (Candida tropicalis [51])
31.2 µg/mL: MFC (Candida albicans [20]) | MFC (Candida albicans [26]) | MFC (Candida albicans [29]) | MFC (Candida albicans [30])
1.95 µg/mL: MIC (Candida albicans [9])
active: Activity (Candida albicans [39]) | Activity (Candida albicans [40]) | Activity (Nakaseomyces glabratus [41]) | Activity (Pichia kudriavzevii [42]) | Activity (Candida tropicalis [43]) | Activity (Candida albicans [52]) | Activity (Candida albicans [54]) | Activity (Candida albicans [55])
